Assay results taken from patent US20230100235A1, “ANTICANCER AGENT COMPOSITION” (CARNA BIOSCIENCES, INC., priority 2020, published 2023).

How the values were obtained:
OCI-Ly10 cells [1] = assay: Cell proliferation suppression test of single agents, OCI-Ly10 (Alamar Blue, 96 h); format: cell-based, Human; conditions: Homo sapiens, OCI-Ly10, single agent, read-out: Inhibitory Activity on cell proliferation IC50 OCI-Ly10
Experimental: Human lymphoma cell line OCI-Ly10 cells (obtained from University Health Network) were cultured in a 5% CO2 incubator using IMDM medium (Iscove's Modified Dulbecco's Medium, Thermo Fisher Scientific Inc.) containing 20% fetal bovine serum (GE Healthcare) and 1% penicillin streptomycin (NACALAI TESQUE, INC.).
(§1) The OCI-Ly10 or U2932 cells (20000 cells/well) were seeded into 96-well plates (cell plates), to which the test compound diluted with the medium was added at final concentrations of 0.009 nM to 30000 nM (a final DMSO concentration of 0.3%), and after 96 hours of culture, an Alamar Blue reagent (Thermo Fisher Scientific Inc.) was added. After 3 hours, the fluorescence of excitation wavelength 560 nm/fluorescence wavelength 590 nm was measured and IC50 values of inhibitory activity were determined by setting a compound-free and cell-free well as 100% and a compound-free and cell-containing well as 0%.

U2932 cells [2] = assay: Cell proliferation suppression test of single agents, U2932 (Alamar Blue, 96 h); format: cell-based, Human; conditions: Homo sapiens, U2932, single agent, read-out: Inhibitory Activity on cell proliferation IC50 U2932
Experimental: Human lymphoma cell line U2932 cells (obtained from DSMZ) were cultured in a 5% CO2 incubator using RPMI medium (Roswell Park Memorial Institute medium, Thermo Fisher Scientific Inc.) containing 10% fetal bovine serum (GE Healthcare) and 1% penicillin streptomycin (NACALAI TESQUE, INC.).
as §1

[3] = system: BTK-C481S-mutant OCI-Ly10 cells; assay: Cell proliferation suppression test of single agents, BTK-C481S-mutant OCI-Ly10; format: cell-based, Human; conditions: Homo sapiens, OCI-Ly10; single agent; read-out: Inhibitory activity on cell proliferation OCI-Ly10 BTK-C481S IC50
Experimental: as §1
(§2) BTK-C481S-mutant OCI-Ly10 cells were produced by point mutation knock-in using the CRISPR-Cas9 system. Cas9 protein (Thermo Fisher Scientific Inc.), guide RNA prepared with GeneArt™ Precision gRNA Synthesis Kit (Thermo Fisher Scientific Inc.), and a single-stranded synthetic oligonucleotide to replace 481st cysteine residue of BTK with a serine residue were introduced into OCI-Ly10 cells by an electroporation method. The resulting modified OCI-Ly10 cells were cultured in the presence of ibrutinib, and the grown cells were used as BTK-C481S-mutant OCI-Ly10 cells. Transduction of the mutation was confirmed by genomic DNA and mRNA sequence analysis.
In the same manner as in Test Example 1, IC50 values for each inhibitor single agent were determined.

OCI-Ly10 cells [4] = assay: Dose-response study of BTK inhibitor in the presence of BCL-2 inhibitor, OCI-Ly10; format: cell-based; conditions: Homo sapiens, read-out: Inhibitory activity on cell proliferation OCI-Ly10 IC50
Experimental: as §1
(§3) Changes in IC50 values of the BTK inhibitor in the presence of the BCL-2 inhibitor at various concentrations were examined.

U2932 cells [5] = assay: Dose-response study of BTK inhibitor in the presence of BCL-2 inhibitor, U2932; format: cell-based; conditions: Homo sapiens, read-out: Inhibitory activity on cell proliferation U2932 IC50
Experimental: as §1, §3
From the result obtained for the BCL-2 inhibitor used as a single agent, BCL-2 inhibitor concentrations for three doses were selected for each cancer cell line.

[6] = system: BTK-C481S-mutant OCI-Ly10 cells; assay: Dose-response study of BTK inhibitor in the presence of BCL-2 inhibitor, BTK-C481S-mutant OCI-Ly10; format: cell-based; conditions: Homo sapiens, read-out: Inhibitory activity on cell proliferation OCI-Ly10 BTK-C481S IC50
Experimental: as §2
BTK-C481S-mutant lymphoma cells were used to examine changes in IC50 values of the BTK inhibitor in the presence of various concentrations of BCL-2 inhibitor.
From the results obtained for the BCL-2 inhibitor used as a single agent, BCL-2 inhibitor concentrations for three doses were selected for BTK-C481-mutant OCI-Ly10 cells.

OCI-Ly10 cells [7] = assay: Combined effect of BTK inhibitor and BCL-2 inhibitor by BLISS score, OCI-Ly10; format: cell-based, Human; conditions: combination with venetoclax, 8×8 matrix, positive = synergistic
Experimental: The BLISS score is one of the criteria used to evaluate synergistic effects in combination of agents (Borisy et al. Proc. Natl. Acad. Sci. USA., 100(13): 7977-7982 (2003); Griner et al. Proc. Natl. Acad. Sci. USA., 111(6): 2349-54 (2014)). This BLISS score was used to analyze the combined effect of a BTK inhibitor and a BCL-2 inhibitor in terms of proliferation inhibition to OCI-Ly10 cells.
After 96 hours of culture, an Alamar Blue reagent was added, and 3 hours later, fluorescence of excitation wavelength 560 nm/fluorescence wavelength 590 nm was measured. Cell proliferation inhibition rate and viability (100−inhibition rate %) were determined by setting a compound-free and cell-free well as 100% and a compound-free and cell-containing well as 0%.
Theoretical BLISS independence (BLISSin) for each well can be calculated from the following formula when agent A and agent B each are thought to have acted as a single agent (i.e., cell proliferation rate when the concentration of either one compound is 0). G is cell viability.
BLISS score for each well can be derived from a difference between the theoretical BLISSin and a measured value of cell proliferation rate. If the BLISS score is a positive number, it is considered that a synergistic effect is present.
BLISS score=100×(BLISSin−G)

[8] = OCI-Ly10, in the presence of S-55746 10 nM
[9] = OCI-Ly10, in the presence of S-55746 30 nM
[10] = OCI-Ly10, in the presence of S-55746 100 nM
[11] = OCI-Ly10, in the presence of navitoclax 10 nM
[12] = OCI-Ly10, in the presence of navitoclax 30 nM
[13] = OCI-Ly10, in the presence of navitoclax 100 nM
[14] = OCI-Ly10, in the presence of obatoclax mesylate 50 nM
[15] = OCI-Ly10, in the presence of obatoclax mesylate 100 nM
[16] = OCI-Ly10, in the presence of obatoclax mesylate 200 nM
[17] = OCI-Ly10, in the presence of venetoclax 1 nM
[18] = OCI-Ly10, in the presence of venetoclax 3 nM
[19] = OCI-Ly10, in the presence of venetoclax 10 nM
[20] = OCI-Ly10, obatoclax mesylate 0 nM

**Q.** Which results are given for `Nc1nc(-c2cccc(-n3ccc4cc(C5CC5)cc(F)c4c3=O)c2CO)c2cc(C3=CCN(C4COC4)CC3)[nH]c2n1` [Compound (I-A), 2-(3-{2-amino-6-[1-(oxetan-3-yl)-1,2,3,6-tetrahydropyridin-4-yl]-7H-pyrrolo[2,3-d]pyrimidin-4-yl}-2-(hydroxymethyl)phenyl)-6-cyclopropyl-8-fluoroisoquinolin-1(2H)-one]?
**A.** IC50 (OCI-Ly10 cells [1]): 2 nM; IC50 (U2932 cells [2]): 12500 nM; IC50 [3]: 15 nM; IC50 (OCI-Ly10 cells [4]; OCI-Ly10, S-55746 0 nM): 2.1 nM; IC50 (OCI-Ly10 cells [4]; [8]): 1.3 nM; IC50 (OCI-Ly10 cells [4]; [9]): 1.1 nM; IC50 (OCI-Ly10 cells [4]; [10]): 0.6 nM; IC50 (OCI-Ly10 cells [4]; [11]): 1.4 nM; IC50 (OCI-Ly10 cells [4]; [12]): 1.1 nM; IC50 (OCI-Ly10 cells [4]; [13]): 0.8 nM; IC50 (OCI-Ly10 cells [4]; [14]): 0.9 nM; IC50 (OCI-Ly10 cells [4]; [15]): 0.9 nM; IC50 (OCI-Ly10 cells [4]; [16]): 0.9 nM; IC50 (OCI-Ly10 cells [4]; [17]): 1.5 nM; IC50 (OCI-Ly10 cells [4]; [18]): 1.5 nM; IC50 (OCI-Ly10 cells [4]; [19]): 1.3 nM; IC50 (OCI-Ly10 cells [4]; [20]): 1.2 nM; IC50 (OCI-Ly10 cells [4]; OCI-Ly10, venetoclax 0 nM): 2.1 nM; IC50 (U2932 cells [5]; U2932, S-55746 0 nM): > 30000 nM; IC50 (U2932 cells [5]; U2932, in the presence of S-55746 100 nM): 3480 nM; IC50 (U2932 cells [5]; U2932, in the presence of S-55746 300 nM): 480 nM; IC50 (U2932 cells [5]; U2932, in the presence of S-55746 1000 nM): 22 nM; IC50 (U2932 cells [5]; U2932, in the presence of navitoclax 30 nM): 12000 nM; IC50 (U2932 cells [5]; U2932, in the presence of navitoclax 100 nM): 1950 nM; IC50 (U2932 cells [5]; U2932, in the presence of navitoclax 300 nM): 23 nM; IC50 (U2932 cells [5]; U2932, in the presence of obatoclax mesylate 50 nM): 19600 nM; IC50 (U2932 cells [5]; U2932, in the presence of obatoclax mesylate 100 nM): 13500 nM; IC50 (U2932 cells [5]; U2932, in the presence of venetoclax 3 nM): 4800 nM; IC50 (U2932 cells [5]; U2932, in the presence of venetoclax 10 nM): 1100 nM; IC50 (U2932 cells [5]; U2932, in the presence of venetoclax 100 nM): 14 nM; IC50 (U2932 cells [5]; U2932, navitoclax 0 nM): 28500 nM; IC50 (U2932 cells [5]; U2932, obatoclax mesylate 0 nM): 25900 nM; IC50 (U2932 cells [5]; U2932, venetoclax 0 nM): 13600 nM; IC50 ([6]; OCI-Ly10, S-55746 0 nM): 11 nM; IC50 [6, 8]: 7.9 nM; IC50 [6, 9]: 5.2 nM; IC50 [6, 10]: 3.1 nM; IC50 [6, 11]: 12 nM; IC50 [6, 12]: 8.2 nM; IC50 [6, 13]: 4.1 nM; IC50 [6, 14]: 5.4 nM; IC50 [6, 15]: 4.4 nM; IC50 [6, 16]: 4 nM; IC50 [6, 17]: 10 nM; IC50 [6, 18]: 6.9 nM; IC50 [6, 19]: 4.8 nM; IC50 ([6]; OCI-Ly10, navitoclax 0 nM): 15 nM; IC50 [6, 20]: 16 nM; IC50 ([6]; OCI-Ly10, venetoclax 0 nM): 15 nM; BLISS score (OCI-Ly10 cells [7]): positive values
